Laboratory results taken from patent publication US10202362B2, “Inhibitors of leukotriene A4 hydrolase” (Celtaxsys, Inc., priority 2016, dated 2019).

Legend:
[1] = target: LTA4 hydrolase peptidase activity (Homo sapiens (Human), UniProt P09960); assay: Peptidase assay (hydrolysis of L-alanine-p-nitroanilide); type: biochemical; conditions: L-alanine-p-nitroanilide substrate
Experimental: Inhibition of peptidase activity was measured for the compounds of the invention by using methods similar to those described in Kull, F. et al., The Journal of Biological Chemistry 1999, 274 (49): 34683-34690.
In brief, the enzyme (29 nM) was incubated with L-alanine-p-nitroanilide (1 mM) in 50 mM HEPES (pH 7.5), 100 mM KCL, 1% DMSO in the absence or presence of a compound of the invention for 1 hour at ambient temperature. Reaction was terminated by addition of acetic acid (1%). Formation of colored nitro-aniline was measured by the increase in absorbance at 405 nm in a Victor 2 plate reader (Wallac). Spontaneous hydrolysis of the substrate was corrected for by subtracting the absorbance of control incubations without enzyme.

[2] = target: recombinant human LTA4 hydrolase (Homo sapiens (Human), UniProt P09960); assay: LTA4 hydrolase homogeneous time resolved fluorescence (HTRF) assay; type: biochemical; conditions: inhibition of hydrolysis of LTA4 to LTB4
Sequence of recombinant human LTA4 hydrolase (P09960 whole entry): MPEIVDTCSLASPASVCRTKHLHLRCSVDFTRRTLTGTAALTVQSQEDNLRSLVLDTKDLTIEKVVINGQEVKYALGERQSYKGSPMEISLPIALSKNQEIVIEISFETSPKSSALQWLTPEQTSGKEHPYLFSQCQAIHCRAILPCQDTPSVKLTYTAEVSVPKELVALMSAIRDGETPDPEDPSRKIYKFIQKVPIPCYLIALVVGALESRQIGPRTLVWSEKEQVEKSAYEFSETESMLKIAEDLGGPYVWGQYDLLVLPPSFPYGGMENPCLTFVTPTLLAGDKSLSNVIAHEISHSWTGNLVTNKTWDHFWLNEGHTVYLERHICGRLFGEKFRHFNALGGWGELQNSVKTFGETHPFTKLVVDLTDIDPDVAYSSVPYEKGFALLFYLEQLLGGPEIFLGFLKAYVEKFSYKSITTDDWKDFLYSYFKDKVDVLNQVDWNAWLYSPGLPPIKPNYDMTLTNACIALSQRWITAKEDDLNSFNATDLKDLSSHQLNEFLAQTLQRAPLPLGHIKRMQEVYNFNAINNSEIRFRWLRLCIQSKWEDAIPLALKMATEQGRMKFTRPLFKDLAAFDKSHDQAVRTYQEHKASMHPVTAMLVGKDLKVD
Experimental: Compounds of the invention were tested in the LTA4 hydrolase homogeneous time resolved fluorescence (HTRF) assay to determine their ability to inhibit the hydrolysis of LTA4 to LTB4. The assay analyzes the amount of LTB4 produced.
LTA4 HTRF assay is a two-step assay involving enzymatic conversion of LTA4 to LTB4, and subsequent quantification of LTB4, product with HTRF assay.
The enzymatic conversion of LTA4 to LTB4 was performed in 384-well plates at ambient temperature in a reaction mixture containing 50 mM HEPES (pH 7.5), 0.5% BSA (fatty acid free), 18 nM recombinant human LTA4 hydrolase, 150 nM LTA4, 1% DMSO in the absence or presence of a compound of the invention. […]
LTB4 formed was quantified with the HTRF assay in which free LTB4 competes with LTB4-XL665 conjugate (acceptor) for anti-LTB4 monoclonal antibody labeled with Europium cryptate (donor), thereby inhibiting the fluorescence energy transfer.
The LTB4 HTRF 384-well assay was carried out by incubating LTB4 samples or standards with LTB4-XL665 conjugate (7.5 ng/well) and anti-LTB4 monoclonal antibody-Europium cryptate conjugate (0.5 ng/well) in 50 mM phosphate, 0.4 M KF and 0.1% casein, buffer (pH 7.0) for two hours at ambient temperature. Plates were read in a RubyStar plate reader (BmG Labtechnologies Inc., NC) simultaneously at 620 nm and 665 nm to obtain signal ratios of 665 nm/620 nm. […]

[3] = test system: LTB4 production in human whole blood; assay: Whole blood assay (LTB4 release upon calcium ionophore, ELISA), human blood; type: cell-based; conditions: production of LTB4 in whole blood
Experimental: Compounds of the invention were tested for their ability as inhibitors of LTA4 hydrolase in a whole blood assay using human, mouse, rat or dog whole blood in a manner similar to that described in Penning, T. D. et al., J. Med. Chem. (2000), 43(4): 721-735. In this assay, compounds were tested for their ability to inhibit LTB4 release upon stimulation with calcium ionophore. The LTB4 levels in supernatants were measured by ELISA.

Sequence of LTA4 hydrolase peptidase activity (P09960 whole entry): as above

Row | IC50 [1] | IC50 [2] | IC50 [3] | SMILES
1 | 7.1 nM | 2.1 nM | 62 nM | O=C(O)C1CCN(C(=O)CN2CCC(Nc3ccc(Oc4ccc(-c5ncco5)cc4)cc3)CC2)CC1 [Example 1, 1-(2-(4-((4-(4-(oxazol-2-yl)phenoxy)phenyl)amino)piperidin-1-yl)acetyl)piperidine-4-carboxylic acid]
2 | 22 nM | 1.8 nM | 100 nM | O=C(O)c1ccc(CN2CCCC(CNc3ccc(Oc4ccc(Cl)cc4)cc3)C2)cc1 (stereo not drawn) [Example 3, 4-((3-(((4-(4-chlorophenoxy)phenyl)amino)methyl)piperidin-1-yl)methyl)benzoic acid]
